Data on 1 compound can be found in patent US20090053168A1, “TREATMENTS OF B-CELL PROLIFERATIVE DISORDERS” (priority 2007, published 2009).

Test [1] relates to GA-10 (Burkitt's lymphoma) cells. The test is described as follows: Anti-proliferation assay (ATPLite, 72 h), GA-10. Type of test: cell-based. The conditions noted are these: x dexamethasone. For orientation: ATP-based viability assays read luminescence as a measure of living cells.
Test [2] deals with MM.1S cells. The test is described as follows: Anti-proliferation assay (ATPLite, 72 h), MM.1S. Conditions: RPMI-8226, H929, MM.1S and MM.1R MM cell lines.
The subject of test [3] is Farage (non-Hodgkin's B cell lymphoma) cells. The test is described as follows: Anti-proliferation assay (ATPLite, 72 h), Farage. Type of test: cell-based. The conditions noted are these: x dexamethasone.

In the case of `CNC(=O)[C@H]1O[C@@H](n2cnc3c(NCc4cccc(I)c4)ncnc32)[C@H](O)[C@@H]1O` [IB-MECA, N^6-(3-iodobenzyl)-5′-N-methylcarboxamidoadenosine], the synergy score was found to be 2.23 in test [1] and 2.91 in test [3]. Besides, the “activity and synergy in antiproliferation assays” value in test [2] was “active and synergistic”.
